Measurements reported in PubChem BioAssay AID1996.
Converted amounts (≈) assume the structure as drawn.

Details: buffer; pH 7.4; 200.0 µM

SMILES | solubility kinetic [µg/mL]
CC(C(=O)c1c[nH]c2ccccc12)N1CCN(C(=O)c2ccco2)CC1 (centres undefined) | > 52.7
CN(C)c1ccc(C(=O)OCC(=O)Nc2cccc(S(=O)(=O)N3CCCC3)c2)cc1 | 5.5 (≈ 12.7 µM)
COc1ccc(C(=O)NCC(=O)N2CCN(C(=O)c3ccco3)CC2)cc1[N+](=O)[O-] | > 62.5
COc1ccccc1/C=C/C(=O)OCC(=O)c1cc(C)n(C)c1C | 7.9 (≈ 24.1 µM)
CN(C)S(=O)(=O)c1ccc(C(=O)OCC(=O)N2CC3(C)CC2CC(C)(C)C3)cc1 (centres undefined) | > 63.4
COc1ccc(C(C)NS(=O)(=O)Cc2ccccc2)cc1 (centres undefined) | 43 (≈ 141 µM)
Cc1ccc(SCC(=O)NCC2CCCO2)cc1 (centres undefined) | > 39.8
CC(C)Oc1c(N2CCOCC2)c(=O)c1=O | > 33.8
COc1cc(/C=C/[N+](=O)[O-])ccc1OC(=O)c1cc2ccccc2oc1=O | 5.7 (≈ 15.5 µM)
Cc1cc(C)c(SCCc2ccncc2)c(C)c1 | 3.1 (≈ 12 µM)
Cc1ccccc1C(=O)c1c[nH]c(C(=O)N=CN(C)C)c1 | > 42.5
CCc1ccc(-n2c([O-])c(C(C)=O)c(=O)[nH]c2=O)cc1.C[NH+](C)C | 38.5
O=[N+]([O-])c1cc(-n2cccc2)ccc1N1CCOCC1 | 31.6 (≈ 116 µM)
CC/C(=N\N1CCCCC1)c1c(O)[nH]c(=O)[nH]c1=O | > 39.9
OCCC1CN(Cc2ccc3c(c2)CCO3)CCN1C1CCCC1 (centres undefined) | 45.2 (≈ 137 µM)
N#C/C(=C\c1cccs1)C(=O)c1ccccc1 | 26.3 (≈ 110 µM)
Cc1cccc(NC(=S)NC2CCSc3ccccc32)c1 (centres undefined) | < 0.3
O=C1c2ccccc2C(=O)N1Cc1cc(Cl)c(O)c([N+](=O)[O-])c1 | > 49.9
COc1ccc(OC(C)C(=O)N(C)Cc2nc(-c3ccccc3)no2)cc1 (centres undefined) | 41 (≈ 112 µM)
O=C(NC1CC1)c1cccc(Oc2ccccc2)c1 | > 38
COc1cccc(Nc2ncnc3sccc23)c1 | > 38.6

SMILES | solubility kinetic [µg/mL]
CC1CC(NC(=O)CC#N)CC(C)(C)C1 (centres undefined) | > 31.2
COC(=O)c1cn(CC(=O)Nc2ccc(OC)cc2)c2ccccc12 | < 0.4
CC(=O)OC(C(=O)NC1CCCCC1)c1ccccc1F (centres undefined) | > 44
O=C(NCc1nc(-c2ccc(Cl)cc2)no1)c1ccco1 | 9.4 (≈ 31 µM)
CN1C(=O)C(CCC(N)=O)NC1=S (centres undefined) | 29.1 (≈ 145 µM)
CCN(C(=O)CSc1cccc[n+]1[O-])C1CCCCC1 | > 44.2
COc1ccccc1C1CCN(c2ccc([N+](=O)[O-])c(OC)c2)CC1 | < 0.4
CCN/C=C(\C#N)S(=O)(=O)c1ccc(Br)cc1 | 34.8 (≈ 110 µM)
CCn1c(=O)c2c(nc(SCC(=O)N3CCC(C)CC3)n2C)n(C)c1=O | > 56.9
Cc1ccc(S(=O)(=O)N2CCN(C(=O)CCC(=O)Nc3ccc(F)cc3F)CC2)cc1 | > 67.7
COc1ccc(N2CCN(CC(=O)Nc3nc(C)cs3)CC2)cc1 | 49.6 (≈ 143 µM)
CCOC(=O)c1c(-c2ccc(C)o2)csc1NC(=O)CN1CCC(C(N)=O)CC1 | 31 (≈ 73.9 µM)
COc1ccccc1N1C(=O)c2ccccc2NC1c1ccc(O)cc1 (centres undefined) | 12.8 (≈ 37 µM)
Cc1cc(Nc2ccc(Br)cc2)nc(-c2ccccc2O)n1 | < 0.3
O=C(NCc1cccnc1)Nc1ccccc1C(F)(F)F | > 44.3
O=C1CN(C(=O)COC(=O)Cc2ccccc2)c2ccccc2N1 | > 48.7
NS(=O)(=O)c1cccc(NC(=O)c2ccno2)c1 | > 40.1
O=C(Nc1ccc(Cl)c([N+](=O)[O-])c1)ONC1=NCCCCC1 | 42.4 (≈ 130 µM)
Cl.O=[N+]([O-])c1cc(S(=O)(=O)CCCN2CCOCC2)ccc1F | > 55.3
CC(C)(C)CN1CCN(CCCc2ccccc2)C(CCO)C1 (centres undefined) | 43.5 (≈ 137 µM)
Cc1ccc([N+](=O)[O-])cc1NC(=O)C[n+]1ccccc1.[Cl-] | > 46.2

SMILES | solubility kinetic [µg/mL]
Cn1ccnc1SC(C(=O)O)c1ccccc1 (centres undefined) | > 37.2
COCCOC(=O)C1=C(C)NC(=O)NC1c1cccc(F)c1 (centres undefined) | > 46.2
N/C(=N/O)c1nc(N2CCCC2)nc(N2CCCC2)n1 | > 41.6
Cc1cc(C)c2sc(N)nc2c1 | 25.1 (≈ 141 µM)
CCCCc1c(C)nc(N2CCCC2)[nH]c1=O | > 35.3
Cc1ccc(CNC(=O)CCc2c(C)[nH]c(=O)c(C#N)c2C)cc1 | > 48.5
CCn1cnc2cc([N+](=O)[O-])ccc21 | > 28.7
CC(C)CCN1CCN(C/C=C/c2ccco2)CC1CCO (centres undefined) | 45.3 (≈ 148 µM)
COc1ccc2oc(=O)c(C(=O)Nc3cccc(C(C)=O)c3)cc2c1 | < 0.7
Cc1c(Cl)cccc1NC(=S)NCCc1ccc(Cl)cc1 | 0.4 (≈ 1.18 µM)
O=C(CS(=O)(=O)c1ccccc1)N1CCCCC1 | > 40.1
COc1cn(-c2ccccc2)nc1C(=O)NCc1ccccc1 | > 46.1
O=C1OCC(c2ccc(Cl)s2)=C1c1ccccc1[N+](=O)[O-] | 22.3 (≈ 69.3 µM)
COc1cccc(NC(=O)COC(=O)C2CCCCC2)c1 | > 43.7
COc1cc(-c2csc(NC3CCCCC3)n2)cc(OC)c1OC | 6.6 (≈ 18.9 µM)
COc1ccc(C(=O)NCC(=O)OCC(=O)NCc2ccc3c(c2)OCO3)cc1 | > 60.1
Cc1cccc(C(=O)Oc2cc(C)[nH]c(=O)c2[N+](=O)[O-])c1 | > 43.2
CC(=O)N1c2ccccc2Sc2ccccc21 | 26.4 (≈ 109 µM)
Cc1ccc(S(=O)(=O)NCC(=O)Nc2cccc([N+](=O)[O-])c2)cc1 | 22.7 (≈ 65 µM)
COc1ccc(-c2cc(C(=O)OCC(=O)N3CCCCC3)c3ccccc3n2)cc1OC | 13.8 (≈ 31.8 µM)
CCN(CC)S(=O)(=O)c1ccc2c(c1)NC(=O)C1CCCN21 (centres undefined) | 46.6 (≈ 144 µM)

SMILES | solubility kinetic [µg/mL]
CN1CCCN(C(=O)CSc2ccccc2)CC1 | 39.3 (≈ 149 µM)
O=C(COC(=O)c1ccccc1)NC1CCCCCC1 | 39.7 (≈ 144 µM)
O=C1OCC(c2ccccc2)=C1c1ccccc1[N+](=O)[O-] | > 42.2
N#CCCC(CCC#N)C1=NCCc2ccccc21 | 36.4 (≈ 145 µM)
COc1ccccc1NC(=S)NCc1ccccc1 | 14.8 (≈ 54.3 µM)
CCN(CC)C(=O)c1ccc(-c2nnc(OC)c3ccccc23)cc1 | > 50.3
COc1cccc(NC(=O)Nc2nc(SC)ns2)c1 | 1.3 (≈ 4.39 µM)
Cc1ccc(C(NC(=O)Nc2ccccn2)C(Cl)(Cl)Cl)cc1F (centres undefined) | < 0.3
Cc1ccc(-c2cc(C(=O)NCC(c3ccccc3)N(C)C)c3ccccc3n2)o1 (centres undefined) | 31.1 (≈ 77.8 µM)
CCCCCOc1ccc(NC2=CC(=O)CCC2)cc1 | > 41
COc1ccccc1C(=O)N(Cc1ccccc1)c1ccc(C)cc1 | 24.1 (≈ 72.7 µM)
COC(=O)c1sc(NC(=O)c2c(-c3ccccc3)noc2C)nc1C | 0.8 (≈ 2.24 µM)
Cc1cc(Cl)ccc1OCCCC(=O)NCc1ccccn1 | > 47.8
CCOP(=O)(OCC)C(NC(=O)c1cccc(C)c1)C(Cl)(Cl)Cl (centres undefined) | 56.3 (≈ 140 µM)
Cc1cccc(C(=O)N2CCC(c3nc4ccccc4s3)CC2)c1 | > 50.5
O=C(c1ccco1)N1CCN(C(=O)c2ccccc2OCc2ccccc2)CC1 | > 58.6
CN1CCc2c(OCc3ccc(F)cc3)cccc2C1=O | 36.8 (≈ 129 µM)
Cc1ccc(C(=O)NCCc2nnc(SCC(=O)Nc3cccc(C(=O)O)c3)n2C)cc1 | > 68
Cn1c(N)c(Sc2ccccc2[N+](=O)[O-])c(=O)n(C)c1=O | 41.5 (≈ 135 µM)
Cc1ccc(CNC(=O)Nc2ccc(F)cc2F)n1C | > 41.9
COc1ccc2c(c1)CCC/C2=N/OC(=O)c1ccccc1OC | 2.6 (≈ 7.99 µM)
